From US5342771A, “Functionalized imidazolinone haptens and protein conjugates thereof useful in assays for the detection of imidazolinone herbicides” (American Cyanamid Company, priority 1993, dated 1994)

Target: antibody
Test: Cross-reactivity of the antibody by ELISA (competitive binding with enzyme conjugate)
Set-up: species or system New Zealand white rabbits
Settings: concentration giving 50% reduction of absorbance caused by enzyme conjugate binding to a known amount of antibody
Procedure: The antigen produced in example 2 is dissolved into 0.1M sodium phosphate buffer solution containing 0.14% sodium chloride at pH 7.6 (PBS 7.6). One milliliter of the antigen solution, 0.5 mg antigen per milliliter, is mixed with one milliliter of Freund's complete adjuvant and emulsified. The emulsion is injected peri-lymph nodal into New Zealand white rabbits at 0.5 mg/rabbit. Three weeks after the initial immunization, 0.25 mg of the antigen in 1 mL of PBS 7.6 is emulsified with 1 mL of Freund's incomplete adjuvant and injected into the rabbits intramuscularly as boosters. The booster injections are introduced every three weeks into the rabbits. After the second boost, blood samples are collected through the ear vein ten days post injection. Serum containing the antibody is harvested from the blood samples and stored.
The antibody and enzyme conjugate prepared above are used to establish an ELISA method for the determination of the presence and concentration of imidazolinones in soil, water or plant samples. A Costar 96 well polystyrene EIA treated flat bottom microwell plate is coated with a constant amount of the antibody in a 0.1N Na2 CO3 buffer. The antibody coated wells are incubated overnight at 4° C., washed with PBS 7.6 buffer containing 0.01% TWEEN® 20, blocked with 5% milk (nonfat dry milk) in PBS 7.6 and incubated 30 minutes at room temperature. Standard solutions having concentrations of imazaquin from 0 to 25 ng per mL are added to the blocked wells followed by the addition of the aforementioned enzyme conjugate.
The wells are incubated for thirty minutes, washed and then a freshly prepared tetramethylbenzidine/hydrogen peroxide substrate solution is added to each well. After ten minutes, readings are taken for each well at 650 nm using a microwell reader.
The cross reactivity of the antibody with imidazolinone compounds, imidazolinone metabolites and other commonly found agrochemicals is determined using the procedure of example 5. The concentration of a compound which produces a 50% reduction of absorbance caused by the enzyme conjugate binding to a known amount of antibody is defined as the I50 value (50% inhibition concentration). The I50 values from the cross-reactivity studies are in Table III.

Molecule	I50 (50% inhibition concentration)
COc1nc(C)nc(NC(=O)NS(=O)(=O)c2ccccc2Cl)n1 [Chlorsulfuron]	> 100,000 ng/mL
CC(C)C1(C)N=C(c2nc3ccccc3cc2C(=O)O)NC1=O (centres unmarked) [Imazaquin, 2-(4-isopropyl-4-methyl-5-oxo-2-imidazolin-2-yl)-3-quinolinecarboxylic acid]	10.7 ng/mL
CC(C)C(C)(C(N)=O)N1C(=O)c2cc3ccccc3nc2C1=O (stereo not drawn) [1,3-Dihydro-α-isopropyl-α-methyl-1,3-dioxo-2 --H-pyrrolo[3,4- -b]quinoline-2-acetamide]	> 5,000 ng/mL
CC(C)C(C)(NC(=O)c1nc2ccccc2cc1C(=O)O)C(N)=O (centres unmarked) [2-[(1-Carbamoyl-1,2-dimethylpropyl)carbamoyl]-3-quinolinecarboxylic acid]	> 5,000 ng/mL
CCc1cccc(CC)c1N(COC)C(=O)CCl [Alachlor]	> 100,000 ng/mL
CCCCOCN(C(=O)CCl)c1c(CC)cccc1CC [Butachlor]	> 100,000 ng/mL
CCc1cnc(C2=NC(C)(C(C)C)C(=O)N2)c(C(=O)O)c1 (centres unmarked) [Imazethapyr, 5-ethyl-2-(4-isopropyl-4-methyl-5-oxo-2-imidazolin-2-yl)nicotinic acid]	18.5 ng/mL
CCC(CC)Nc1c([N+](=O)[O-])cc(C)c(C)c1[N+](=O)[O-] [Pendimethalin]	> 100,000 ng/mL
COC(=O)c1nc2ccccc2cc1C(=O)NC(C)(C(N)=O)C(C)C (centres unmarked) [Methyl 3-[(1-carbamoyl-1,2-dimethylpropyl)carbamoyl]-2-quinolinecarboxylate]	> 5,000 ng/mL
CCNc1nc(Cl)nc(NC(C)C)n1 [Atrazine]	> 100,000 ng/mL
C[n+]1ccc(-c2cc[n+](C)cc2)cc1 [Paraquat]	> 100,000 ng/mL
CC(C)C1(C)N=C(c2ncccc2C(=O)O)NC1=O (centres unmarked) [Imazapyr, 2-(4-isopropyl-4-methyl-5-oxo-2-imidazolin-2-yl)nicotinic acid]	149.0 ng/mL
mixture of methyl 6-(4-isopropyl-4-methyl-5-oxo-2-imidazolin-2-yl)-m-toluate and methyl 2-(4-isopropyl-4-methyl-5-oxo-2-imidazolin-2-yl)-p-toluate [Imazamethabenz]	33.2 ng/mL
CC(C)C(C)(NC(=O)c1cc2ccccc2nc1C(=O)O)C(N)=O (centres unmarked) [3-[(1-Carbamoyl-1,2-dimethylpropyl)carbamoyl]quinaldic acid]	> 5,000 ng/mL
